# From ChEMBL document CHEMBL4706518, “Discovery of MGS0274, an ester prodrug of a metabotropic glutamate receptor 2/3 agonist with improved oral bioavailability” (Eur J Med Chem, 2020)
# Activity calls are given as the source filed them. The calls are words filed in the database; no cut-off is given here.
# How the values were obtained:
# [1] = target: T1, Metabotropic glutamate receptor 6 (Homo sapiens, UniProt O15303); experiment: Agonist activity at human mGlu6 receptor expressed in HEK293T cell membranes by GTPgammaS binding assay; assay type: functional, Cell membrane
# [2] = target: T2, Metabotropic glutamate receptor 8 (Homo sapiens, UniProt O00222); experiment: Agonist activity at human mGlu8 receptor expressed in CHO cell membranes by GTPgammaS binding assay; assay type: functional, Cell membrane
# [3] = Oral bioavailability in monkey at 4.92 umol/kg measured up to 24 hrs by LC-MS/MS analysis; assay type: ADME, organism-based, Macaca mulatta; conditions: rhesus monkey, in vivo, at 4.92 µmol/kg
# [4] = target: T3, Metabotropic glutamate receptor 1 (Homo sapiens, UniProt Q13255); experiment: Antagonist activity at human mGlu1 receptor expressed in CHO cell membranes in presence of glutamate by intracellular Ca2+ assay; assay type: functional, Cell membrane
# [5] = target: Metabotropic glutamate receptor 3 (Rattus norvegicus, UniProt P31422); experiment: Agonist activity at rat mGlu3 receptor expressed in CHO cell membranes by GTPgammaS binding assay; assay type: functional, Cell membrane
# [6] = target: T4, Metabotropic glutamate receptor 4 (Homo sapiens, UniProt Q14833); experiment: Antagonist activity at human mGlu4 receptor expressed in CHO cell membranes in presence of glutamate by GTPgammaS binding assay; assay type: functional, Cell membrane
# [7] = target: Vasopressin V1b receptor (Homo sapiens) (UniProt P47901); experiment: Binding affinity to Vasopressin V1b receptor (unknown origin) 10 umol/L by radioligand binding assay; conditions: dose 10.0 µmol/L
# [8] = target: Beta-1 adrenergic receptor (Homo sapiens) (UniProt P08588); experiment: Binding affinity to beta1 adrenoreceptor (unknown origin) 10 umol/L by radioligand binding assay; conditions: dose 10.0 µmol/L
# [9] = organism: Homo sapiens; experiment: Binding affinity to GABAB (unknown origin) 10 umol/L by radioligand binding assay; conditions: dose 10.0 µmol/L
# [10] = target: T4, Metabotropic glutamate receptor 4; experiment: Agonist activity at human mGlu4 receptor expressed in CHO cell membranes by GTPgammaS binding assay; assay type: functional, Cell membrane
# [11] = target: Metabotropic glutamate receptor 3 (Homo sapiens, UniProt Q14832); experiment: Antagonist activity at human mGlu3 receptor expressed in CHO cell membranes in presence of glutamate by GTPgammaS binding assay; assay type: functional, Cell membrane
# [12] = target: T3, Metabotropic glutamate receptor 1; experiment: Agonist activity at human mGlu1 receptor expressed in CHO cell membranes by intracellular Ca2+ assay; assay type: functional, Cell membrane
# [13] = target: D(1A) dopamine receptor (Homo sapiens) (UniProt P21728); experiment: Binding affinity to D1 receptor (unknown origin) 10 umol/L by radioligand binding assay; conditions: dose 10.0 µmol/L
# [14] = target: Metabotropic glutamate receptor 3 (Rattus norvegicus) (UniProt P31422); experiment: Agonist activity at rat mGlu3 receptor expressed in CHO cell membranes by GTPgammaS binding assay relative to control; assay type: functional; conditions: Cell membrane, filed as agonist
# [15] = target: T2, Metabotropic glutamate receptor 8; experiment: Antagonist activity at human mGlu8 receptor expressed in CHO cell membranes in presence of glutamate by GTPgammaS binding assay; assay type: functional, Cell membrane
# [16] = target: Alpha-2A adrenergic receptor (Homo sapiens) (UniProt P08913); experiment: Binding affinity to alpha2A adrenoreceptor (unknown origin) 10 umol/L by radioligand binding assay; conditions: dose 10.0 µmol/L
# [17] = target: Cannabinoid receptor 2 (Homo sapiens) (UniProt P34972); experiment: Binding affinity to CB2 (unknown origin) 10 umol/L by radioligand binding assay; conditions: dose 10.0 µmol/L
# [18] = target: T1, Metabotropic glutamate receptor 6; experiment: Antagonist activity at human mGlu6 receptor expressed in HEK293T cell membranes in presence of glutamate by GTPgammaS binding assay; assay type: functional, Cell membrane
# [19] = target: Metabotropic glutamate receptor 2 (Homo sapiens, UniProt Q14416); experiment: Agonist activity at human mGlu2 receptor expressed in CHO cell membranes by GTPgammaS binding assay; assay type: functional, Cell membrane
# Beta-1 adrenergic receptor (Homo sapiens), sequence (P08588 whole entry, looked up): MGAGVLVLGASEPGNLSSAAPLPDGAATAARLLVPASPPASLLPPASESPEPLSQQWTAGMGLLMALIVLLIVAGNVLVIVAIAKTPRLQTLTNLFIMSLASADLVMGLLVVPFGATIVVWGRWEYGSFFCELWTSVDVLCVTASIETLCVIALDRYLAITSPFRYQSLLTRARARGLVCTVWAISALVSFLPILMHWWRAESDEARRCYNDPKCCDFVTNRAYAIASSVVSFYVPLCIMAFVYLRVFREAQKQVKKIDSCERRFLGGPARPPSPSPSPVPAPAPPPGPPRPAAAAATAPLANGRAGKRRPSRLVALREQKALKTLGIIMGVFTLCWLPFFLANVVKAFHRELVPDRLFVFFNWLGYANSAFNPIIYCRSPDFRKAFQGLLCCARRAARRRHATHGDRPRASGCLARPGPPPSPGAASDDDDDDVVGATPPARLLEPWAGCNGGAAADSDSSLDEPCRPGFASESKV
# Alpha-2A adrenergic receptor (Homo sapiens), sequence (P08913 whole entry): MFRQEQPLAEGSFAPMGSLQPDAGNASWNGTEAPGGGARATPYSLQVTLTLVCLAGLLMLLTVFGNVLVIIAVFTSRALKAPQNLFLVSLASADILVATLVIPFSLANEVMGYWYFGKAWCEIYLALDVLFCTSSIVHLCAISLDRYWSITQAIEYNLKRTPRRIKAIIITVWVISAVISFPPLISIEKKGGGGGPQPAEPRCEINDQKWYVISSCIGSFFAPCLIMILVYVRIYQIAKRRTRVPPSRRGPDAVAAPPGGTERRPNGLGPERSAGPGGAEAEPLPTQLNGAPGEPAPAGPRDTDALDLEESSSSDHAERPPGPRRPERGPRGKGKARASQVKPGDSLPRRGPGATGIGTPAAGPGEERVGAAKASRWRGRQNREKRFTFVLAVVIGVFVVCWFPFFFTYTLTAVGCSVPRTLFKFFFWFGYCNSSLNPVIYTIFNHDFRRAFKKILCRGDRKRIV
# T2 sequence (O00222 whole entry): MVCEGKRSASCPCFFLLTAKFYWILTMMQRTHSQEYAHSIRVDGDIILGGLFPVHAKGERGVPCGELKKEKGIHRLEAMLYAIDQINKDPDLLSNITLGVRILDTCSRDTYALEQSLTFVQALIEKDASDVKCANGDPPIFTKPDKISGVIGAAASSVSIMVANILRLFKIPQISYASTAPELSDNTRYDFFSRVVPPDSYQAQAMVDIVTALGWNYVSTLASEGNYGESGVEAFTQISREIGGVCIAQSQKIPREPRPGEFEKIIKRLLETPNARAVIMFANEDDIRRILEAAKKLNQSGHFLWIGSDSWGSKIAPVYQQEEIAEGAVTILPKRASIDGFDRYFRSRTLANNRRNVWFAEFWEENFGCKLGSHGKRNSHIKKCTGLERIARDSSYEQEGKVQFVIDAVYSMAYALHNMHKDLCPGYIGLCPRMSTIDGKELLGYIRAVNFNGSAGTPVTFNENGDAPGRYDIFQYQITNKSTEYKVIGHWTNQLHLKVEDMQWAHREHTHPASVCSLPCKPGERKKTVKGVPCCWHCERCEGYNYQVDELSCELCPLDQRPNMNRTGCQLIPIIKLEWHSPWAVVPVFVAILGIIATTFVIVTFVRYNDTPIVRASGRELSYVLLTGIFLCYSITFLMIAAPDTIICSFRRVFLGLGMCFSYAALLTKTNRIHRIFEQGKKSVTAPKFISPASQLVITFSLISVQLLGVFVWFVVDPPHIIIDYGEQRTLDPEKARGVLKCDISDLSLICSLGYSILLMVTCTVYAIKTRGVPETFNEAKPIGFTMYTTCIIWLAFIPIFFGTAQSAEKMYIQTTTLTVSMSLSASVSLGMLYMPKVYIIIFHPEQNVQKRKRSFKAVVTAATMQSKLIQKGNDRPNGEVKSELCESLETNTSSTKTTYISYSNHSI
# Vasopressin V1b receptor (Homo sapiens), sequence (P47901 whole entry): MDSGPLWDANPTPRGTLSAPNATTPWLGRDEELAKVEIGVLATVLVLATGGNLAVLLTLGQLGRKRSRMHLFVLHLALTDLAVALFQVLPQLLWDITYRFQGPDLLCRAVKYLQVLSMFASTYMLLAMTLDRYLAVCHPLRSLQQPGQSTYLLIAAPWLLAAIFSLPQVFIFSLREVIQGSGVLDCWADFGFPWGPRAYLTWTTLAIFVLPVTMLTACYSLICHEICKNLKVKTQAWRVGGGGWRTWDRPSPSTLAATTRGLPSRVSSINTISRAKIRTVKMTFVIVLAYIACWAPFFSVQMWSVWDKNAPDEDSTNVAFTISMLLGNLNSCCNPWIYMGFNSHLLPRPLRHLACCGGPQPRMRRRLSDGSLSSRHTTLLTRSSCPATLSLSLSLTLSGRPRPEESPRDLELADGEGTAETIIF
# T4 sequence (Q14833 whole entry): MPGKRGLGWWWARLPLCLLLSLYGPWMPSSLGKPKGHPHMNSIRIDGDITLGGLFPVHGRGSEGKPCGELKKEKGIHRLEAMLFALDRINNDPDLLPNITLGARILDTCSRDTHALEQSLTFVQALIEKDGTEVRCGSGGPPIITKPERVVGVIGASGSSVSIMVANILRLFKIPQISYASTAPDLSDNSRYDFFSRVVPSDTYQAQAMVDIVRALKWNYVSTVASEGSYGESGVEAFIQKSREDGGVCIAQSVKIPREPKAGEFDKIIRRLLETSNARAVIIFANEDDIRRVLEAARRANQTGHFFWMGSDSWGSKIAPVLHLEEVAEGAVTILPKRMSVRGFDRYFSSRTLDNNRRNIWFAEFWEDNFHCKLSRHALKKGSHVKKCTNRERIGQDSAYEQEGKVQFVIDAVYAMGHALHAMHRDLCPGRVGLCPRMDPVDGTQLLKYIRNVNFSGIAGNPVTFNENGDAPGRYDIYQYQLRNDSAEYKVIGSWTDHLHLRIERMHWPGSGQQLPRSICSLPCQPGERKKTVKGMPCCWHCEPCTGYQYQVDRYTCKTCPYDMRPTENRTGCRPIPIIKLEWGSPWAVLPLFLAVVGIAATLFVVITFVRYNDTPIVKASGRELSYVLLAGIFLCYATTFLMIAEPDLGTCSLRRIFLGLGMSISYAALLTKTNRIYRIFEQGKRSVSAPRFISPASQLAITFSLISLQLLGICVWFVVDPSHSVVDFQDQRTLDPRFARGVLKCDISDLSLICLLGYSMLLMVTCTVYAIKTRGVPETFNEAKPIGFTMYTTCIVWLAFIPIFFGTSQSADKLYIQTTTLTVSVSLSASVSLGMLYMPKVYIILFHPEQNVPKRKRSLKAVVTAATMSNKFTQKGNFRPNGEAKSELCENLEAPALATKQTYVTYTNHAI
# D(1A) dopamine receptor (Homo sapiens), sequence (P21728 whole entry): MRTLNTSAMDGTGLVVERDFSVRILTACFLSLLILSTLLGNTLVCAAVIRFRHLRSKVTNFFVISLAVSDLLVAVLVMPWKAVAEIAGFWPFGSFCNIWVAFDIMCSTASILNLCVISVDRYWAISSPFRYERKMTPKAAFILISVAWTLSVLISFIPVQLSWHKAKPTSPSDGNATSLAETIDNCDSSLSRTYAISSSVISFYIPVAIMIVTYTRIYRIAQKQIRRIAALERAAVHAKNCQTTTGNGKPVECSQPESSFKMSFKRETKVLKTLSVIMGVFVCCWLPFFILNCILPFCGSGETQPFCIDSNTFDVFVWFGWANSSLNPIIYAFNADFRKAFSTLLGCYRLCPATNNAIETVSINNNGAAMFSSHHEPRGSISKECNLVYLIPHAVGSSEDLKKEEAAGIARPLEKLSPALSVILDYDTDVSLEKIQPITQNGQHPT
# Cannabinoid receptor 2 (Homo sapiens), sequence (P34972 whole entry): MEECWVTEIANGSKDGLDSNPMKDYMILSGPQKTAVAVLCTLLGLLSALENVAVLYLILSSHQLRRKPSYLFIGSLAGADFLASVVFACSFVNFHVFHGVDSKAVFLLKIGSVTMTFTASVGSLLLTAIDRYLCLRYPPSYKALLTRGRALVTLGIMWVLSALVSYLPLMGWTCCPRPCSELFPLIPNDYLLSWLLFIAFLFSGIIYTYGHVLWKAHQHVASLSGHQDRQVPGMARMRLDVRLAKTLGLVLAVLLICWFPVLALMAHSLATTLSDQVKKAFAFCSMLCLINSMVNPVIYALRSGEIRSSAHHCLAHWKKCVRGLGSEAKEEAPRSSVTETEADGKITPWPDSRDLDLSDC
# T1 sequence (O15303 whole entry): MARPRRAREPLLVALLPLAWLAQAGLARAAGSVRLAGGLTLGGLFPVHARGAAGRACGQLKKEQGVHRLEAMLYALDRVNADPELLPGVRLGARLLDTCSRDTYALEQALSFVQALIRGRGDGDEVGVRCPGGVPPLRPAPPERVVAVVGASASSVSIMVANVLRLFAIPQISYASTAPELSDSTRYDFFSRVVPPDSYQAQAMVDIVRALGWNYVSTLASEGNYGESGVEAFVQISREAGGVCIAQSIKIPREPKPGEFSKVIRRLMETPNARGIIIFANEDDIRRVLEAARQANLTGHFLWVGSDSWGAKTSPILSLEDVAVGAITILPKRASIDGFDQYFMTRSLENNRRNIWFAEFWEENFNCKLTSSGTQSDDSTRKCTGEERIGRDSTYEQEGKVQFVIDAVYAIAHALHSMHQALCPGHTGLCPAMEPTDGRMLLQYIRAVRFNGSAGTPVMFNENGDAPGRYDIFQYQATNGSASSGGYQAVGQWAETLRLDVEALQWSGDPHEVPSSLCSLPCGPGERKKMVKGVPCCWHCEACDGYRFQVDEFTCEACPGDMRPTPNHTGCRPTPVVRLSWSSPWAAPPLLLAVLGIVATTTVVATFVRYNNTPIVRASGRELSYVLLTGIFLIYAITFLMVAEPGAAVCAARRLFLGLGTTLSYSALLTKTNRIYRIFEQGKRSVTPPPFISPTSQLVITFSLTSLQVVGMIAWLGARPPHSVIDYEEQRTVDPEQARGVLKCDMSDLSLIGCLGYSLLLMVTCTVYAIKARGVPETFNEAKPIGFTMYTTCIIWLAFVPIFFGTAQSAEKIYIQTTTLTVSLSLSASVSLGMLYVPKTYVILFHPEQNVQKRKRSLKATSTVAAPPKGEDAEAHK
EC50 [1],EC50 [2],bioavailability [3],IC50 [4],EC50 [5],IC50 [6],Activity [7],Activity [8],Activity [9],EC50 [10],IC50 [11],EC50 [12],Activity [13],Emax [14],IC50 [15],Activity [16],Activity [17],IC50 [18],EC50 [19],Compound
> 30 µM,> 30 µM,4%,> 30 µM,0.0969 µM,> 30 µM,inactive,inactive,inactive,> 30 µM,> 30 µM,> 30 µM,inactive,99.7%,> 30 µM,inactive,inactive,> 30 µM,–,N[C@]1(C(=O)O)[C@H]2[C@@H](C[C@@H]1F)[C@@H]2C(=O)O
–,–,–,–,–,–,inactive,inactive,inactive,–,–,–,inactive,–,–,inactive,inactive,–,> 30 µM,CC(C)[C@@H]1CC[C@@H](C)C[C@H]1OC(=O)O[C@@H](C)OC(=O)[C@H]1[C@@H]2C[C@H](F)[C@@](N)(C(=O)O)[C@@H]21
